Results reported in patent US9415036B2, “Pharmaceutical composition for use in the treatment or prevention of osteoarticular diseases” (BONE THERAPEUTICS, priority 2008, dated 2016).
“And” between values parts separate entries of the source, which are not always exact repeats. Equal entries are not always repeated.

How the values were obtained:
Type in all cases: cell-based, human
[1] = system: PBMC (Peripheral blood mononuclear cells); test: Proliferation assay (3H-thymidine) of PBMC
Method: (§1) PBMCs (Peripheral blood mononuclear cells) from heparinized venous blood of healthy volunteers were isolated by Ficoll-gradient centrifugation. MNC (Mononuclear cells) were washed three times in PBS and resuspended in RPMI-1640 medium supplemented with 100 U/mL penicillin, 100 μg/mL streptomycin, and 10% heat-inactivated FBS (Fetal Bovine Serum). Cells were seeded at 100.000 cells in 96-wel plate in a total volume of 200 μL/well.
(§2) PBMC, at 100.000 cells/200 μL, were plated in 96-well microtiter plates and stimulated or not with 10 μg/mL phytohemagglutinin (PHA). Effects of hyaluronic acid “HA” (200 μg/mL) and p-aminoclonidine “A2A” (5 μM) were tested on PBMC.
MSC (Mesenchymal stromal cells) were derived from 20 to 60 mL of heparinized bone marrow (BM) obtained from the iliac crest of healthy volunteers. BM was mixed with phosphate-buffered saline (PBS, 2v:v) and layered on density gradient Ficoll solution. After centrifugation, mononuclear cells were harvested from the interface and washed twice in PBS. Cells were resuspended in standard MEM medium supplemented with 15% FBS. The cells were plated at 2×10^6 cells/75 cm2 flasks and maintained in a 37° C. humidified atmosphere containing 5% CO2. Cells were allowed to attach for 24 hours prior an initial medium change. Cells were detached at day 10 using trypsin-EDTA solution for 1-5 min at 37° C. Then, cells were irradiated (10 minutes at 2200Ci) before seeding in 96-well for proliferative assays at 12.500 cells/well to obtain a ratio 1:8 (MSC:PBMC).
The culture was incubated with 1 μCi/mL 3H-thymidine for 24 hours before end of culture to measure the proliferation. Then, cells were washed twice with ice-cold PBS and twice with ice-cold 5% trichloroacetic acid (TCA). Finally, cells were lysed with 0.1N NaOH-0.1% Triton-X100. Supernatants were collected and analyzed on a beta-counter in presence of scintillation liquid. Results were done in cpm (“count per minute”=disintegration number of radioactive element observed in series of successive counts of one minute). IL-1β (beta) detection (By ELISA). Levels of IL-1β from PBMC or culture supernatants were measured by Quantikine ELISA kit (R&D Systems Inc, Mineapolis, USA). The minimum detectable concentration of IL-1β was estimated at 1.0 pg/mL.
The release of IL-1 beta by PBMC and the proliferation of PBMC, induced by PHA stimulation, were set as controls, and compared with the measures for PBMC treated with HA and/or A2A.

MSCs = MSCs cultured in chondrogenic medium, pellets stained with Alcian blue / Nuclear fast red; details: HA 200 μg/ml, A2A 5 μMol
Method: MSCs were culture in chondrogenic medium for 7, 14 and 21 days and 4 conditions were tested • control • A2A: 5 μMol aminoclonidine • HA: 200 μg/ml of hyaluronic acid • HA+A2A: 200 μg/ml of hyaluronic acid and 5 μMol aminoclonidine
At day 14 and 21, pellets were fixed in 10% buffered formalin for 6 hours, and washed twice in PBS. Pellets were then embedded in OCT (Sakura Finetek, Belgium). Sections were cut at a thickness of 5 μm and were stained with Alcian blue, before counterstained with Nuclear fast red (Klinipath, Belgium)
GAGs will be stained blue, while Nuclear fast red will counterstain cells nuclei in pink or red, and cytoplasm in pale pink. In brief, the procedure is 1) Stain in alcian blue solution for 30 minutes; 3) Wash in running tap water for 2 minutes; 4) Rinse in distilled water; 5) Counterstain in nuclear fast red solution for 5 minutes; 6) Wash in running tap water for 1 minute; 7) Dehydrate through 95% alcohol, and 2 changes of absolute alcohol, 3 minutes each; 8) clear in Ultraclear, a xylene substitute (Klinipath, Belgium); 9) Mount with Ultrakit mounting medium (Klinipahth, Belgium). Toluidine blue stains proteoglycan in red-purple (metachromatic staining) and the nucleus in blue (orthochromatic staining). Metachromasia, tissue elements staining a different color from the dye solution, is due to the pH, dye concentration and temperature of the basic dye. […]

IL-1β = IL-1β detection (ELISA) in PBMC culture supernatants
Method: as §1, §2
MSC (Mesenchymal stromal cells) were derived from 20 to 60 mL of heparinized bone marrow (BM) obtained from the iliac crest of healthy volunteers. BM was mixed with phosphate-buffered saline (PBS, 2v:v) and layered on density gradient Ficoll solution. After centrifugation, mononuclear cells were harvested from the interface and washed twice in PBS. […]
The culture was incubated with 1 μCi/mL 3H-thymidine for 24 hours before end of culture to measure the proliferation. […] Supernatants were collected and analyzed on a beta-counter in presence of scintillation liquid. […] Levels of IL-1β from PBMC or culture supernatants were measured by Quantikine ELISA kit (R&D Systems Inc, Mineapolis, USA). […]

[2] = basal (unstimulated) conditions

Nc1cc(Cl)c(N=C2NCCN2)c(Cl)c1 [A2A, p-aminoclonidine]
Proliferation ([1]; PBMC stimulated with 10 μg/mL PHA, HA 200 μg/mL, A2A 5 μM, MSC:PBMC 1:8): 16212 cpm
effect on PBMC proliferation ([1]; PHA stimulated PBMC): not able to inhibit
Proliferation ([1]; PHA stimulated PBMC, PBMC + PHA set at 100): 101% and 100%
effect on PBMC proliferation [1, 2]: no effect
Proliferation ([1]; unstimulated PBMC, HA 200 μg/mL, A2A 5 μM, MSC:PBMC 1:8): 786 cpm
Proliferation ([1]; unstimulated PBMC, PBMC + PHA set at 100): 4.9%
matrix (mucopolysaccharides and glycosaminoglycans) content / production, Alcian blue staining (MSCs): almost absent
effect on IL-1beta secretion (IL-1β; PHA stimulated PBMC): totally suppressed
effect on IL-1beta secretion (IL-1β; [2]): no effect
